Results as given in US20260098008A1, “COVALENT, CHEMOGENETIC ACTIVATORS FOR K2P POTASSIUM CHANNELS AND USES THEREOF” (THE REGENTS OF THE UNIVERSITY OF CALIFORNIA, priority 2022, published 2026).
Substitutions are numbered along the chain they refer to.

Tests used:
Type in all cases: cell-based
[1] = target: T1, CG*-CG* tandem K2P2.1 (TREK-1) (Mus musculus, UniProt P97438, S146C); assay: Single channel recordings from HEK293 cells in cell attached mode; conditions: 20 μM; for Change of open probability (Po activator/Po control): cell-attached, -100 mV
T1 construct: expressed in transfected cells; host or cells: Xenopus laevis oocytes injected with mRNA
T1 sequence (P97438 1-411 isoform P97438-2 S131C) 1: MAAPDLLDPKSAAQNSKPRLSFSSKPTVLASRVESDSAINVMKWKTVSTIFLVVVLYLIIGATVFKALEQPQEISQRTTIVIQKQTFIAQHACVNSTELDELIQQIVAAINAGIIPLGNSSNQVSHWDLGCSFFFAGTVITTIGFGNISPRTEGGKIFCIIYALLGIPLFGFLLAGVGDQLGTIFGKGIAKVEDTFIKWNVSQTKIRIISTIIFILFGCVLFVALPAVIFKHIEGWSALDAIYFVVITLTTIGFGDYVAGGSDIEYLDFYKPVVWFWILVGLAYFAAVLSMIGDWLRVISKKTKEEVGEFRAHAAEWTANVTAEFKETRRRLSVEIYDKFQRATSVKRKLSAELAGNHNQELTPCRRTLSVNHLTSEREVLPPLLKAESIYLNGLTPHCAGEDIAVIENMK
T1 sequence (P97438 1-411 isoform P97438-2 S131C) 2: T1 sequence (P97438 1-411 isoform P97438-2 S131C) 1
Description: (§1) Mouse K2P2.1 (TREK-1) (Genbank accession number: NP_034737.2), mouse K2P10.1 (TREK-2) (NM_001316665.1), mouse K2P4.1 (TRAAK) (NM_008431.3), human K2P4.1 (TRAAK) (NM_033310.2) and mouse K2P18.1(TRESK) (NM_207261.3) were used for this study. Point mutations were introduced by site-directed mutagenesis using custom primers and confirmed by sequencing before use. For studies using Xenopus oocytes, K2P channels were subcloned into a previously reported pGEMHE/pMO vector (46). For expression in HEK293 cells, mouse K2P2.1 (TREK-1) and mutants were expressed from a previously described pIRES2-EGFP vector in HEK293 cells (46,47). K2P2.1 (TREK-1) tandems were constructed by connecting the open reading frames for the individual subunits with a linker encoding the […] (SEQ ID NO: 19) sequence. Tandems used for HEK293 cells included an N-terminal HA tag ([…] (SEQ ID NO: 20)) on the first subunit.
(§2) Single-channel recordings of K2P2.1 (TREK-1) tandem mutants were recorded in cell-attached mode using HEK293 cells 48 h after transfection. Acquisition and analysis was preformed using pCLAMP9 and an Axopatch 200B amplifier. Pipettes were pulled using a laser-based micropipette puller (P-2000, Sutter Instruments). Electrode resistance after filling with pipette internal solution ranged from 6 to 10 MΩ. Pipette solution contained the following: 150 mM KCl, 3.6 mM CaCl2, 10 mM HEPES (pH 7.4 with KOH). The bath solution was identical to the pipette solution. Po was measured from 30-120 s recordings of K2P2.1 (TREK-1) activity holding at −100 mV. Channel conductance of K2P2.1 (TREK-1) tandems were measured from 30-60s recordings at either −100 mV or +50 mV holding potential. Recordings of CAT335 activated channels were obtained by bath applying 20 μM CAT335 for 2 min to the coverslip before transferring to the recording chamber. This was necessary as application of CAT335 via perfusion or through the pipette solution activated slowly (>5 min), making it difficult to measure Po from fully activated channels. BL-1249 was applied at 20 μM in the bath solution via perfusion at 3 mL min^−1 (2-4 min). Data were analyzed using Clampfit 11 and GraphPad Prism 9.

[2] = target: T2, WT-WT tandem K2P2.1 (TREK-1) (Mus musculus, UniProt P97438); assay: as above; conditions: 20 μM; for Change of open probability (Po activator/Po control): cell-attached, -100 mV
T2 construct: expressed in transfected cells; host or cells: Xenopus laevis oocytes injected with mRNA
T2 sequence (P97438 1-411 isoform P97438-2) 1: T1 sequence (P97438 1-411 isoform P97438-2 S131C) 1 with C131S
T2 sequence (P97438 1-411 isoform P97438-2) 2: T1 sequence (P97438 1-411 isoform P97438-2 S131C) 1 with C131S
Description: as §1, §2

[3] = target: T3, CG*-WT tandem K2P2.1 (TREK-1) (Mus musculus, UniProt P97438, S146C); assay: as above; conditions: 20 μM; for Change of open probability (Po activator/Po control): cell-attached, -100 mV
T3 construct: expressed in transfected cells; host or cells: Xenopus laevis oocytes injected with mRNA
T3 sequence (P97438 1-411 isoform P97438-2 S131C): T1 sequence (P97438 1-411 isoform P97438-2 S131C) 1
T3 sequence (P97438 1-411 isoform P97438-2): T1 sequence (P97438 1-411 isoform P97438-2 S131C) 1 with C131S
Description: as §1, §2

K2P4.1 (TRAAK)^CG* = assay: TEVC in Xenopus oocytes; conditions: 20 μM
Description: as §1
Xenopus laevis oocytes were harvested according to UCSF IACUC Protocol AN129690 and digested using collagenase (Worthington Biochemical Corporation, #LS004183, 0.8-1.0 mg/mL) in Ca^21-free ND96 (96 mM NaCl, 2 mM KCl, 3.8 mM MgCl2, 5 mM HEPES pH 7.4) immediately post-harvest, as previously reported (31,33). Oocytes were maintained at 18° C. in ND96 (96 mM NaCl, 2 mM KCl, 1.8 mM CaCl2, 2 mM MgCl2, 5 mM HEPES pH 7.4) supplemented with antibiotics (100 units mL^−1 penicillin, 100 μg mL^−1 streptomycin, 50 μg mL^−1 gentimycin) and used for experiments within one week of harvest.
Defolliculated stage V-VI oocytes were microinjected with 0.5-36 ng mRNA and currents were recorded within 16-48 h hours of injection.
For recordings, oocytes were impaled with borosilicate recording microelectrodes (0.4-2.0 MΩ resistance) backfilled with 3 M KCl and were subjected to constant perfusion of ND96 at a rate of 3 ml min^−1. Recording solutions containing K2P activators were prepared immediately prior to use from DMSO stocks (20-100 mM), with final DMSO concentrations of 0.1%. Currents were evoked from a −80 mV holding potential followed by a 300 ms ramp from −150 mV to +50 mV. Data were recorded using a GeneClamp 500B amplifier (MDS Analytical Technologies) controlled by pCLAMP8 software (Molecular Devices), and digitized at 1 kHz using Digidata 1332 Å digitizer (MDS Analytical Technologies). For each recording, control solution (ND96) was perfused over a single oocyte until current was stable before switching to solutions containing the test compounds at various concentrations. Representative traces and dose response plots were generated in GraphPad Prism 9.

| Change of open probability (Po activator/Po control) [1] | Change of open probability (Po activator/Po control) [2] | Change of open probability (Po activator/Po control) [3] | SMILES | Fold-activation (I activator/I control) (K2P4.1 (TRAAK)^CG*; after 2 min) | Effect on single channel conductance ([1]; -100 mV and +50 mV) | Effect on single channel conductance ([2]; -100 mV and +50 mV) | Effect on single channel conductance ([3]; -100 mV and +50 mV) | Reversibility of activation (K2P4.1 (TRAAK)^CG*; Xenopus oocytes) | Fold-activation (I activator/I control) (K2P4.1 (TRAAK)^CG*; longer application (6 min) to approach maximal activation) |
| --- | --- | --- | --- | --- | --- | --- | --- | --- | --- |
| large increases in Po | large increases in Po | large increases in Po | c1ccc(-c2nn[nH]n2)c(Nc2cccc3c2CCCC3)c1 [BL-1249, reference compound] | – | – | – | – | – | – |
| – | – | – | CS(=O)(=O)Nc1ccc(C(=O)NCc2ccc(Cl)cc2Cl)cc1 [ML335, reference compound] | 1.9±0.1 fold | – | – | – | – | – |
| 7.8 | no impact on open probability | 6.3 | O=C(NCc1ccc(Cl)cc1Cl)c1ccc(N2C(=O)C=CC2=O)cc1 [CAT335] | 4.2±0.6 fold | minimal to no effect on single channel conductance | minimal to no effect on single channel conductance | minimal to no effect on single channel conductance | irreversibly activated | 11±1 fold |
